Read-outs that look alike come from different tables or passages of the source. Some results are limits rather than exact numbers.

In assay [1] the test system is rice blast. Type of assay: in vivo, Pyricularia oryzae.
The test system of assay [2] is rice blast. The assay is described as follows: whole plant or invertebrate. Type of assay: in vivo. Particulars: Pyricularia oryzae, 504 h, read-out: prevention value.
The next assay relates to rice "Bakanae" disease. The assay is described as follows: whole plant or invertebrate. Type of assay: in vivo. Particulars: Oryza sativa, 504 h, read-out: prevention value.
Where [3] appears, read: rice (Sachikaze), nursery box soil treated at sowing time or transplanting time, 400 g a.i./10 a, observed 7 days after inoculation, untreated plants = 3.

In the assay with rice blast [1] (in vivo), `CC1(C)c2ccccc2C2(c3cnc4ccccc4c3)ON2C1(C)C` (stereo not shown) [Compound No. 2-91, 3,3,4,4-tetramethyl-8b-quinolin-3-yl-4,8b-dihydro-3H-oxazireno[3,2-a]isoquino line] showed a disease severity of 0.

`CC1(C)N=C(c2cnc3c(F)cccc3c2)c2cccc(F)c2C1(C)C` [Compound No. 1-918, 8-fluoro-3-(5-fluoro-3,3,4,4-tetramethyl-3,4-dihydroisoquinolin-1-yl)quinoline] showed a disease severity with rice blast [1] (setting [3]) of 0.

In the case of `CC1(C)N=C(c2cnc3ccccc3c2)c2cccc(F)c2C1(F)F` [Compound No. 1-930, 3-(4,4,5-trifluoro-3,3-dimethyl-3,4-dihydroisoquinolin-1-yl)quinoline], the pest or weed control at 0.02 % a.i. in the assay on rice blast [2] and with rice "Bakanae" disease was at least 80% throughout. The disease severity in the assay with rice blast [1] (setting [3]) is reported as 0.

On to `CC1(C)c2cc(F)ccc2C(c2cnc3ccccc3c2)=[N+]([O-])C1(C)C` [Compound No. 3-109, 3-(6-fluoro-3,3,4,4-tetramethyl-2-oxido-3,4-dihydroisoquinolin-1-yl)quinoline], for which the disease severity in the assay on rice blast [1] (setting [3]) is given as 0.

Molecule `CC1(C)Cc2c(Br)cccc2C(c2cnc3ccccc3c2)=N1` [Compound No. 1-56, 3-(5-bromo-3,3-dimethyl-3,4-dihydroisoquinolin-1-yl)quinoline] displayed a disease severity in the assay with rice blast [1] (setting [3]) of 0.

As to `CC1(C)Cc2c(Cl)cccc2C(c2cnc3ccccc3c2)=N1` [Compound No. 1-44, 3-(5-chloro-3,3-dimethyl-3,4-dihydroisoquinolin-1-yl)quinoline], in the assay with rice blast [1] (setting [3]), the disease severity was determined as 0.

Molecule `Cc1cccc2cc(C3=NC(C)(C)C(C)(C)c4c(F)cccc43)cnc12` [Compound No. 1-919, 3-(5-fluoro-3,3,4,4-tetramethyl-3,4-dihydroisoquinolin-1-yl)-8-methylquinoline] yielded a disease severity in the assay on rice blast [1] (setting [3]) of 0.

Turning to `CC1(C)N2OC2(c2cnc3ccccc3c2)c2ccccc2C1(F)F` (stereo not shown) [Compound No. 2-134, 4,4-difluoro-3,3-dimethyl-8b-quinolin-3-yl-4,8b-dihydro-3H-oxazireno[3,2-a]isoquinoline], in the assay on rice blast [2], the pest or weed control at 0.02 % a.i. is at least 80%.

As for `CC1(C)[N+]([O-])=C(c2cnc3ccccc3c2)c2cccc(F)c2C1(F)F` [Compound No. 3-135, 3-(4,4,5-trifluoro-3,3-dimethyl-2-oxido-3,4-dihydroisoquinolin-1-yl)quinoline], the pest or weed control at 0.02 % a.i. with rice blast [2] and with rice "Bakanae" disease was at least 80% throughout. Further, the disease severity in the assay on rice blast [1] (setting [3]) amounted to 0.

On to `CC1(C)Cc2c(F)cccc2C(c2cnc3ccccc3c2)=N1` [Compound No. 1-32, 3-(5-fluoro-3,3-dimethyl-3,4-dihydroisoquinolin-1-yl)quinoline], for which the pest or weed control at 0.02 % a.i. with rice blast [2] and in the assay on rice "Bakanae" disease was at least 80% throughout. In the assay on rice blast [1] (setting [3]), this molecule registered a disease severity of 0.

`CC1(C)Cc2c(ccc(F)c2F)C(c2cnc3ccccc3c2)=N1` [Compound No. 1-117, 3-(5,6-difluoro-3,3-dimethyl-3,4-dihydroisoquinolin-1-yl)quinoline] registered a disease severity with rice blast [1] (setting [3]) of 0.

As for `CC1(CC(F)(F)F)Cc2ccccc2C(c2cnc3ccccc3c2)=N1` (stereo not shown) [Compound No. 1-425, 3-[3-methyl-3-(2,2,2-trifluoroethyl)-3,4-dihydroisoquinolin-1-yl]quinoline], the disease severity with rice blast [1] (setting [3]) stood at 0.

For `CC1(C)[N+]([O-])=C(c2cnc3ccccc3c2)c2ccccc2C1(F)F` [Compound No. 3-134, 3-(4,4-difluoro-3,3-dimethyl-2-oxido-3,4-dihydroisoquinolin-1-yl)quinoline], the pest or weed control at 0.02 % a.i. in the assay with rice blast [2] and in the assay on rice "Bakanae" disease was at least 80% throughout. In addition, in the assay on rice blast [1] (setting [3]), the disease severity is recorded as 0.

With `CC1(C)N2OC2(c2cnc3ccccc3c2)c2cccc(F)c2C1(F)F` (stereo not shown) [Compound No. 2-135, 4,4,5-trifluoro-3,3-dimethyl-8b-quinolin-3-yl-4,8b-dihydro-3H-oxazireno[3,2-a]isoquinoline], the pest or weed control at 0.02 % a.i. in the assay on rice blast [2] was at least 80%.

Molecule `CC1(c2ccc(F)cc2)Cc2ccccc2C(c2cnc3ccccc3c2)=N1` (stereo not shown) [Compound No. 1-502, 3-[3-methyl-3-(4-fluorophenyl)-3,4-dihydroisoquinolin-1-yl]quinoline] yielded a disease severity in the assay with rice blast [1] (setting [3]) of 0.

Turning to `CC1(C)N=C(c2cnc3ccccc3c2)c2ccccc2C1(C)C` [Compound No. 1-865, 3-(3,3,4,4-tetramethyl-3,4-dihydroisoquinolin-1-yl)quinoline], the pest or weed control at 0.02 % a.i. in the assay with rice "Bakanae" disease was at least 80%.

For `CC1(C)c2c(F)cccc2C2(c3cnc4ccccc4c3)ON2C1(C)C` (stereo not shown) [Compound No. 2-100, 5-fluoro-3,3,4,4-tetramethyl-8b-quinolin-3-yl-4,8b-dihydro-3H-oxazireno[3,2-a]isoquinoline], the pest or weed control at 0.02 % a.i. in the assay on rice blast [2] and in the assay with rice "Bakanae" disease was at least 80% each time.

Consider `CC1(C)c2c(F)cccc2C(c2cnc3ccccc3c2)=[N+]([O-])C1(C)C` [Compound No. 3-100, 3-(5-fluoro-3,3,4,4-tetramethyl-2-oxido-3,4-dihydroisoquinolin-1-yl)quinoline], for which the pest or weed control at 0.02 % a.i. in the assay on rice blast [2] and with rice "Bakanae" disease was at least 80% in each case. This molecule also returned a disease severity in the assay on rice blast [1] (setting [3]) of 0.

In the assay on rice blast [1] (setting [3]), `CCCC1(C)Cc2c(F)cccc2C(c2cnc3ccccc3c2)=N1` (stereo not shown) [Compound No. 1-185, 3-(5-fluoro-3-methyl-3-propyl-3,4-dihydroisoquinolin-1-yl)quinoline] gave a disease severity of 0.

For `CC1(C)N=C(c2cnc3ccccc3c2)c2cccc(F)c2C1(C)C` [Compound No. 1-866, 3-(5-fluoro-3,3,4,4-tetramethyl-3,4-dihydroisoquinolin-1-yl)quinoline], the pest or weed control at 0.02 % a.i. in the assay on rice blast [2] and in the assay on rice "Bakanae" disease was at least 80% in each case. In the assay with rice blast [1] (setting [3]), this molecule gave a disease severity of 0.

`CC1(C(F)(F)F)Cc2ccccc2C(c2cnc3ccccc3c2)=N1` (stereo not shown) [Compound No. 1-387, 3-(3-methyl-3-trifluoromethyl-3,4-dihydroisoquinolin-1-yl)quinoline] yielded a disease severity with rice blast [1] (setting [3]) of 0.

For the molecule `CC1(C)N=C(c2cnc3ccccc3c2)c2ccccc2C1(F)F` [Compound No. 1-929, 3-(4,4-difluoro-3,3-dimethyl-3,4-dihydroisoquinolin-1-yl)quinoline], the pest or weed control at 0.02 % a.i. with rice blast [2] and in the assay with rice "Bakanae" disease was at least 80% in each case. The molecule further gave a disease severity with rice blast [1] (setting [3]) of 0.

The record behind these values is patent publication US8729093B2 (priority 2006, dated 2014).
